The values below come from paper PMC3923439, “Anti-inflammatory properties of a novel peptide interleukin 1 receptor antagonist” (Journal of Neuroinflammation, 2014).

Series [1] can be described thus: Pharmacokinetics: plasma and CSF concentration by competitive ELISA. Format: in vivo. The following applies: rat, single s.c. 10 mg/kg, calculated. As to the method: Biotinylated Ilantide-t (Schafer-N) was administered to adult male Wistar rats subcutaneously (s.c.) at a dose of 10 mg/kg. Twenty minutes, sixty minutes, one hundred forty minutes, five hours and thirty hours after peptide administration, blood samples (approximately 300 μl) were collected from the orbital plexus under fentanyl/droperidol/midazolam anesthesia (0.002%/0.14%/0.014% wt/vol) (Department of Experimental Medicine, University of Copenhagen, Denmark) in ethylenediaminetetraacetic acid–coated tubes (BD, Plymouth, UK), and 50 to 110 U/ml aprotinin (Calbiochem, San Diego, CA, USA) was added immediately to the collected blood. The samples were subsequently centrifuged at 1,500 × g for 15 minutes. Cerebrospinal fluid (CSF) was collected from the cisterna magna 30 minutes after peptide administration as described previously. Plasma and CSF samples were stored at -80°C.
The concentrations of Ilantide-t in plasma and CSF samples were measured by performing a competitive ELISA on amino 96-well plates (Nunc). […] Color development was terminated by the addition of 2 M H2SO4 (100 μl/well), and absorbance was read at 450 nm on a Wallac Victor 1420 multilabel counter (PerkinElmer, Hvidovre, Denmark). Peptide concentrations in the samples were determined using a standard curve. […]

The test system of series [2] is HEK-Blue IL-6 cells (STAT3). The experiment in a line: IL-6-induced STAT3 activation, SEAP reporter. Type of series: cell-based. The settings on record: 1.2 pM IL-6, 24 hours, SEAP read at 600 nm. As to the method:
HEK-Blue IL-1β cells that contained an IL-1β-sensitive reporter (InvivoGen, San Diego, CA, USA) and HEK-Blue IL-6 cells that contained an IL-6-sensitive reporter (InvivoGen) were grown at 37°C with 5% CO2 in Dulbecco’s modified Eagle’s medium (DMEM) supplemented with 5% (vol/vol) fetal calf serum (FCS), 4.5 g/L glucose, 2 mM GlutaMAX medium, 100 U/ml penicillin, 100 μg/ml streptomycin (all obtained from Gibco BRL/Life Technologies, Taastrup, Denmark), 100 μg/ml zeocin, 200 μg/ml hygromycin and 100 μg/ml Normocin (all purchased from InvivoGen).
HEK-Blue IL-6 cells were grown as described above. IL-6 cells allow the monitoring of the activation of the signal transducer and activator of transcription 3 (STAT3) pathway specifically in response to IL-6. They express a STAT3-inducible SEAP reporter gene. For the STAT3 activation assay, the cells were treated with 1.2 pM IL-6 alone or together with various concentrations of Ilantide. TNF-α (1.2 pM) was added as a control ligand for both the NF-κB and STAT3 assays. After 24-hour incubation at 37°C, 150 μl of HEK-Blue cell supernatant were added to each well of a 96-well plate together with 50 μl of QUANTI-Blue (InvivoGen), incubated at 37°C in the dark for 40 minutes and measured in an ELISA reader at 600 nm to determine the expression level of the secreted SEAP.

Series [3] has as its system neonatal rat pancreatic islets. The series can be described thus: IL-1β-induced nitric oxide production (nitrite, Griess reagent). Type of series: cell-based. The following applies: nitrites in supernatants of the apoptosis experiments, four independent experiments. As to the method:
(§1) For cell death detection, rat islets were incubated with 150 pg/ml IL-1β (BD Pharmingen, San Diego, CA, USA) alone or in combination with various concentrations of Ana and Ilantide for 24 hours at 37°C in humidified atmospheric air. Rat islet cell death was assessed by cell death detection ELISA (Roche, Lund, Sweden) as previously described. As a surrogate measure of nitric oxide production, Griess reagent (1:1 aqueous mixture of 0.1% naphthylethylenediamine hydrochloride and 1% sulfanilamide + 5% H3PO4) was mixed in a 1:1 ratio with 100 μl of supernatant samples to determine the nitrite content in supernatants from the cell death assays described above.
Figure 8 Effect of Ilantide on interleukin 1β-induced nitric oxide production. Anakinra (A) but none of the peptides, Ilantide-m (B) or Ilantide-t (C), inhibited interleukin 1β (IL-1β)-induced nitric oxide production. The results of four independent experiments are shown. *P < 0.05 and **P < 0.01 compared with cultures treated with IL-1 alone (one-way analysis of variance followed by Dunnett’s post hoc test).

The subject of series [4] is neonatal rat pancreatic islets. The experiment in a line: IL-1β-induced rat islet cell apoptosis (cell death detection ELISA). Type of series: cell-based. As to the method:
Neonatal rat islets were isolated from 3- to 6-day-old outbred Wistar rats (Taconic, Ejby, Denmark) as previously described. Islets were precultured and maintained in RPMI 1640 medium (Gibco/Life Technologies) supplemented with 20 mmol/L HEPES buffer, 0.038% (wt/vol) NaHCO3, 100 U/ml penicillin, 100 µg/ml streptomycin and 10% (vol/vol) newborn calf serum (NCS) at 37°C in humidified atmospheric air. Prior to experimentation, the islets were randomly distributed to 24-well dishes and incubated for 2 hours in RPMI 1640 medium supplemented as described above, but with 0.5% (vol/vol) NCS relevant reagents were added as indicated.
as §1
Figure 7 Effect of Ilantide on interleukin 1β-induced rat islet cell apoptosis. Rat pancreatic islets were preincubated for 30 minutes in the absence or presence of various concentrations of anakinra (A), Ilantide-m (B) or Ilantide-t (C) and then exposed to […] interleukin 1β (IL-1β) for 24 hours. Cytokine-induced apoptosis was determined by cell death detection enzyme-linked immunosorbent assay. Apoptosis rates are presented as fold induction compared with untreated control islets (white bars). The data from four independent experiments are presented as mean ± SEM. *P < 0.05 and **P < 0.01 compared with cultures treated with IL-1β alone (one-way analysis of variance followed by Dunnett’s post hoc test).

Series [5] deals with collagen-induced arthritis. The series can be described thus: Collagen-induced arthritis in rats. Type of series: in vivo. The settings on record: rat, 10 mg/kg s.c. daily dpi 8 to 15, dpi 10 to 16, P < 0.05.
Method: CIA was induced by bovine collagen type II (CII; Sigma-Aldrich) solubilized in 0.05 M acetic acid (2 mg/ml), then emulsified 1:1 with complete Freund’s adjuvant (CFA) (Sigma-Aldrich) that contained 1.0 mg/ml heat-inactivated Mycobacterium tuberculosis. While the animals were under inhalation anesthesia (3% isoflurane; Baxter, Allerød, Denmark), 250 μl of the emulsion that contained 250 μg of CII and 125 μg of M. tuberculosis were injected intradermally at the tail base (day postimmunization 0 (dpi 0)). […] An observer who was blinded to the treatment groups evaluated the severity of arthritis by employing the following grading system: 0 (no redness or swelling of the foot), 1 (slight redness in the foot or redness and swelling in single interphalangeal joints), 2 (moderate swelling and redness in the ankle and metatarsal part of the foot), 3 (marked swelling and redness of the entire foot, with restricted use of the foot during locomotion) and 4 (marked swelling and redness of the entire foot, with no use of the foot during locomotion). […] The differences in the area under the clinical score curve during the period of observation between the control and peptide-treated groups were calculated, with baseline defined as the start of treatment (that is, 0).

Positions of bridges follow the written chain, without caps; N, C: chain ends. Chains are numbered I, II in the order given. No end group written: not given here.

Regarding “I: SGRKSSKMQAKK-NH2 / II: SGRKSSKMQAK / III: SGRKSSKMQA / IV: SGRKSSKMQA (amide I:11-IV:C, I:12-II:C, II:11-III:C; C-terminus assumed) [Ilantide-t]”, the Plasma half-life result in series [1] is recorded as “approximately 2 hours”. The “Inhibition of STAT3 activation induced by IL-6” value in series [2] is on record as “did not inhibit”. In series [3], the “Inhibition of IL-1β-induced nitric oxide production” value is “none”. The “Reduction of IL-1-induced apoptosis relative to the maximal effect of Ana” value in series [4] (Ilantide-t in high molar excess) is reported as 1.5 ×. In addition, the “Maximal inhibition of IL-1β-induced apoptosis” value in series [4] (rat islets, 30 minutes preincubation, 8.68 nM (150 pg/ml) IL-1β, 24 hours, four independent experiments) came to 93%. The “Severity of CIA (clinical score, area under the curve) versus vehicle” value in series [5] is reported as “significantly attenuated”.
